Patent US20210371422A1, “MORPHINAN DERIVATIVE” (priority 2016, published 2021)
Counter-ions that a name gives are not always drawn. Like-named read-outs stand apart in the source and are kept apart here.

Experiments:
human opioid κ receptor = target: T1, human opioid κ receptor (Homo sapiens, UniProt P41145); assay: Opioid receptor function test (Lance Ultra cAMP Kit), κ receptor; format: cell-based
T1 construct: host or cells: CHO cells
Protocol: (§1) Opioid Receptor Function Test
(§2) The functional activities of the compounds provided by the present invention on the μ, δ, and κ opioid receptors were investigated.
(§3) The test was performed by using Lance Ultra cAMP Kit (PerkinElmer) according to a method predetermined for the kit. In the evaluation of the agonistic activity, CHO cells expressing each of the human opioid receptors (δ, μ, and κ, accession numbers and catalog numbers are mentioned below) and 10 μM of each test compound were reacted for 30 minutes in an assay buffer (1×HESS, […], pH 7.4, […] (isobutylmethylxanthine), 7.5% BSA) in the presence of forskolin. Subsequently, the cAMP detection reagent included in the kit was added, and 1 hour afterward, time-resolved fluorescence measurement was performed by using the EnVision plate reader (PerkinElmer). The test compounds and the control drugs (δ: SNC80, μ: DAMGO, K: U-69593) were evaluated in a concentration range of 10^-12 to 10^-5 M, a dose-response curve of each test compound was obtained from the fluorescence values at 665 nm, and EC50 value and the Emax value were calculated. The Emax value was calculated as a ratio of the maximum reaction of the test compound to the maximum reaction of each control drug, which is taken as 100%.

human opioid δ receptor = target: T2, human opioid δ receptor (Homo sapiens, UniProt P41143); assay: Opioid receptor function test (Lance Ultra cAMP Kit), δ receptor; format: cell-based; conditions: for EC50: CHO cells expressing human δ receptor, cAMP, in the presence of forskolin, read-out: δ receptor EC° C.; for Emax: ratio to maximum reaction of control drug SNC80 (100%)
T2 construct: host or cells: CHO cells
Protocol: as §1, §2, §3

hERG potassium channel = target: T3, hERG potassium channel (Homo sapiens, UniProt Q12809); assay: hERG potassium channel inhibition test (automatic patch clamp); format: cell-based; conditions: for hERG channel inhibitory effect: hERG-expressing CHO cells
T3 construct: host or cells: CHO cells
Protocol: Human Ether-a-Go-Go Related Gene (hERG) Potassium Channel Inhibition Test
The test was performed with Port-a-Patch automatic patch clump apparatus (Manion Technologies) using hERG channel-stably expressing CHO cells (purchased from Channelopathy Foundation). The membrane potential of the cells was maintained at −80 mV, then there were applied a depolarization pulse at +20 mV for 1.5 seconds, and a following test pulse at −50 mV for 1.5 seconds at a frequency of 1 time per 10 seconds, and the hERG current was confirmed as a tail current induced by the test pulse. The test compound was dissolved in an extracellular fluid (137 mM NaCl, 4 mM KCl, 1.8 mM CaCl2, 1 mM MgCl2, 10 mM D(+)-glucose, 10 mM HEPES, pH 7.4), and the solution was […] at room temperature for 5 minutes. The inhibition ratio was obtained from the ratio of the tail current value observed after the compound was applied based on the tail current value observed before the compound was applied, which was taken as 100%.

human opioid μ receptor = target: T4, human opioid μ receptor (Homo sapiens, UniProt P35372); assay: Opioid receptor function test (Lance Ultra cAMP Kit), μ receptor; format: cell-based; conditions: for EC50: CHO cells expressing human μ receptor, cAMP, N.C. = maximum reaction not reached at highest concentration (10 μM), not calculated, read-out: μ receptor EC° C.
T4 construct: host or cells: CHO cells
Protocol: as §1, §2, §3

C57BL/6N male mice = assay: Mouse elevated plus maze test; format: in vivo; conditions: 0.3 mg/kg subcutaneous administration, 30 minutes before test (FIG. 1)
Protocol: Mouse Elevated Plus Maze Test
For the test, 5 to 6 weeks old C57BL/6N male mice were used. On a plus maze apparatus consisting of a wall-less running route (open arm, width 6 cm, length 30 cm) and a running route with a wall (closed arm, width 6 cm, length 30 cm, height of wall 15 cm), and having a height of 40 cm, a mouse was put so as to be directed to the running route with a wall, and allowed to spontaneously enter into the plus maze. Each test substance was dissolved in saline or 0.005 N HCl in saline, and subcutaneously administered on the back 30 minutes before the start of the test. At the time of the start of the test, video recording with a video camera was started, the time at which the mouse entered into the plus maze is considered to be the start of the test, and exploratory behavior was recorded for 5 minutes. On the basis of the video image, staying time in the running routes were determined, and wall-less running route staying time ratio (%) was calculated.

[1] = Intracerebral migration test (concentration in cerebrospinal fluid and plasma); format: in vivo; conditions: male, Wistar, sc, rat, 3 mg/kg s.c., 30 minutes after administration
Protocol: Intracerebral Migration Test
A Wistar male 5-9 week old rat was used for the test. A test substance was dissolved in saline or a 4.5% cyclodextrin aqueous solution, and 1 mol/L hydrochloric acid (0.5 to 2.0 v/v %) was added thereto as necessary. The test substance was subcutaneously administered to the rat at a dose of 3 or 10 mg/kg. Thirty minutes later, cerebrospinal fluid was collected from the cisterna magna under isoflurane anesthesia. Subsequently, laparotomy was performed, and blood was collected from the vena cava. Thereafter, the blood was centrifuged at 1500×g at 4° C. for 15 minutes to obtain plasma. The animal was euthanized promptly by aortic cutting. The concentrations of the test substance in cerebrospinal fluid and plasma were measured using LC-MS/MS.

Wistar male rats = assay: Rat elevated plus maze test; format: in vivo
Protocol: Rat Elevated Plus Maze Test
An anxiolytic effect of a compound provided by the present invention was examined using the rat elevated plus maze test.
For the test, 7 to 9 weeks old Wistar male rats were used. […] Each test substance was dissolved in a 4.5% aqueous solution of cyclodextrin, and orally administered 2 hours before the start of the test. The test data were automatically analyzed by using video image action analysis software (Smart3.0, PanLab S.L., PanLab), and wall-less running route staying time ratio (%) was calculated.

[2] = read-out: κ receptor Emax (*reaction rate at the highest concentration, reference value)
[3] = read-out: μ receptor Emax (*reaction rate at the highest concentration, reference value)
[4] = ratio to maximum reaction of control drug DAMGO (100%), read-out: μ receptor Emax

T3 sequence (Q12809 whole entry): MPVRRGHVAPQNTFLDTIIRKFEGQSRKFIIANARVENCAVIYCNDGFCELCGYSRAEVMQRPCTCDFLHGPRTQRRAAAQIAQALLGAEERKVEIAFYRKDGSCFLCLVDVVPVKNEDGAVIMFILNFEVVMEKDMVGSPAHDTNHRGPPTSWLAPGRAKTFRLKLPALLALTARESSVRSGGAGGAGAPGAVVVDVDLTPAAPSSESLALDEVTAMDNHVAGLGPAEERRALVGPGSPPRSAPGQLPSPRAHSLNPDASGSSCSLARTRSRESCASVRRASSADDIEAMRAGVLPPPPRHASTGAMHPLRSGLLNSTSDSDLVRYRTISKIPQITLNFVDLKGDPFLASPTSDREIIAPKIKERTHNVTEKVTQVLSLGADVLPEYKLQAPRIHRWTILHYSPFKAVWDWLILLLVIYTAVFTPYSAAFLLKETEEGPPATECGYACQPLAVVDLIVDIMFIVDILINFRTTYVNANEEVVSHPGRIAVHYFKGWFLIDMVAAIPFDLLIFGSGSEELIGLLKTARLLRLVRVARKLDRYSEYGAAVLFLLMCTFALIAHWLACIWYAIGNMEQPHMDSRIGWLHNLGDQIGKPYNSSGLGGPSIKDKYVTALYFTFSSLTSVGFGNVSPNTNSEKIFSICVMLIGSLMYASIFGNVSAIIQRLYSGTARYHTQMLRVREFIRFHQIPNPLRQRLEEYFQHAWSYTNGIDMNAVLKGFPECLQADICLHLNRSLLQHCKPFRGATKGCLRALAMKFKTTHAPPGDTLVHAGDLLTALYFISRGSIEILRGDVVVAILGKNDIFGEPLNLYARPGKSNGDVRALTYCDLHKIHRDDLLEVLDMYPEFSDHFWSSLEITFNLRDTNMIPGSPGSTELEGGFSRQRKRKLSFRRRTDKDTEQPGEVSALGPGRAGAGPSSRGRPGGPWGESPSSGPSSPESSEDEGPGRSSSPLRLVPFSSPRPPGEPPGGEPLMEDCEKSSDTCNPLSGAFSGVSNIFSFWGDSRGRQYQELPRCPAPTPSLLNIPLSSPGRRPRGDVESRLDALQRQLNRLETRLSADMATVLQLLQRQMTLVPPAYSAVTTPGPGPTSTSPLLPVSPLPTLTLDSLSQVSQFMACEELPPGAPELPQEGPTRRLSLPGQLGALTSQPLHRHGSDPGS
T1 sequence (P41145 whole entry): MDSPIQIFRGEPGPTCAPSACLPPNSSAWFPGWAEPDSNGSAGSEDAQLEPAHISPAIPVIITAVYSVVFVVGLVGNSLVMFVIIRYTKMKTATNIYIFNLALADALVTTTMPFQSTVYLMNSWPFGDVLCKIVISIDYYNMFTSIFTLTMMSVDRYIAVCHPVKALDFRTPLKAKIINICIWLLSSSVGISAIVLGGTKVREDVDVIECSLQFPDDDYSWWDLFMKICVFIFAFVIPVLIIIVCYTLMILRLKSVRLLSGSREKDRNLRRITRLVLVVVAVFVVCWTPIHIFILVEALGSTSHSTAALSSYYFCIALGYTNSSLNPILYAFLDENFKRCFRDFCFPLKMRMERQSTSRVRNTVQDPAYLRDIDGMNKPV
T2 sequence (P41143 whole entry): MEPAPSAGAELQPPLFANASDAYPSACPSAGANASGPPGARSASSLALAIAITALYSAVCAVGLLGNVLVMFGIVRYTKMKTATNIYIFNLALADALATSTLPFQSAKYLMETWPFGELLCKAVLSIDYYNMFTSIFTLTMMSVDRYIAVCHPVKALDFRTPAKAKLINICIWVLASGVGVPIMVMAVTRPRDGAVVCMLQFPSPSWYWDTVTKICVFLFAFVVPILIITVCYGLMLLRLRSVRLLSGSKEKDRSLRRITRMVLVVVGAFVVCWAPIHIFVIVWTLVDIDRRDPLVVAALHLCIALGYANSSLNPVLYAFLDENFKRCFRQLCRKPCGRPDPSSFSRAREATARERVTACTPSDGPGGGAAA
T4 sequence (P35372 whole entry): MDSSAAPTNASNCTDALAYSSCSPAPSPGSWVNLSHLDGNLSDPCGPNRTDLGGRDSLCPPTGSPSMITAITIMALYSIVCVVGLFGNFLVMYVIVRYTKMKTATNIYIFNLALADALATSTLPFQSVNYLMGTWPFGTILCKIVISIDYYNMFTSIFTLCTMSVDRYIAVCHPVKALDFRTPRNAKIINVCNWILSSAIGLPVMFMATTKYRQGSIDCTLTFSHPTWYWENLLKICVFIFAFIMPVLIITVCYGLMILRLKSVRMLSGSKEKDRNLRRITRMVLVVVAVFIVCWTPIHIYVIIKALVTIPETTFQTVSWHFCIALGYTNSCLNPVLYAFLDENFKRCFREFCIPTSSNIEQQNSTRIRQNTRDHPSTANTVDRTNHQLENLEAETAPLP

| Structure (SMILES) | Emax (human opioid κ receptor; [2]) [%] | EC50 (human opioid δ receptor) [nM] | Emax (human opioid δ receptor) [%] | hERG channel inhibitory effect (in words) (hERG potassium channel) | hERG channel inhibitory effect (hERG potassium channel; concentration 10 μM) [%] | Emax (human opioid μ receptor; [3]) [%] | also measured |
| --- | --- | --- | --- | --- | --- | --- | --- |
| O=C([C@H]1CCCN1)N1C[C@H]2C[C@@]34CC[C@@H]1[C@@H]2[C@@]31CCN(CC2CC2)[C@@H]4Cc2ccc(O)cc21 [Example 2, (1S,3aR,5aS,6R,11bR,11cS)-3-(D-prolyl)-14-(cyclopropylmethyl)-10-hydroxy-2,3,3a,4,5,6,7,11c-octahydro-1H-6,11b-(epiminoethano)-1,5a-methanonaphtho[1,2-e]indole dihydrochloride] | 3.8 | < 3 | 95 | only a weak inhibitory effect | <50 | 3.8 |  |
| O=C([C@H]1CCCCN1)N1C[C@H]2C[C@@]34CC[C@@H]1[C@@H]2[C@@]31CCN(CC2CC2)[C@@H]4Cc2ccc(O)cc21 [Example 4, ((1S,3aR,5aS,6R,11bR,11cS)-14-(cyclopropylmethyl)-10-hydroxy-1,2,3a,4,5,6,7,11c-octahydro-3H-6,11b-(epiminoethano)-1,5a-methanonaphtho[1,2-e]indol-3-yl) ((R)-piperidin-2-yl) methanone dihydrochloride] | 5 | < 3 | 82 | only a weak inhibitory effect | <50 | 0.87 |  |
| O=C([C@H]1CCCNC1)N1C[C@H]2C[C@@]34CC[C@@H]1[C@@H]2[C@@]31CCN(CC2CC2)[C@@H]4Cc2ccc(O)cc21 [Example 6, ((1S,3aR,5aS,6R,11bR,11cS)-14-(cyclopropylmethyl)-10-hydroxy-1,2,3a,4,5,6,7,11c-octahydro-3H-6,11b-(epiminoethano)-1,5a-methanonaphtho[1,2-e]indol-3-yl) ((S)-piperidin-3-yl) methanone dihydrochloride] |  | < 3 | 74 |  |  | 5.5 | EC50 (human opioid κ receptor): < 1 nM; Emax (human opioid κ receptor; read-out: κ receptor Emax): 11% |
| CN1CCC[C@@H]1C(=O)N1C[C@H]2C[C@@]34CC[C@@H]1[C@@H]2[C@@]31CCN(CC2CC2)[C@@H]4Cc2ccc(O)cc21 [Example 9, (1S,3aR,5aS,6R,11bR,11cS)-14-(cyclopropylmethyl)-10-hydroxy-3-(methyl-D-prolyl)-2,3,3a,4,5,6,7,11c-octahydro-1H-6,11b-(epiminoethano)-1,5a-methanonaphtho[1,2-e]indol] | 3.7 | < 3 | 64 |  |  | -0.6 |  |
| O=C([C@H]1CCCO1)N1C[C@H]2CC34CCC1C2C31CCN(CC2CC2)C4Cc2ccc(O)cc21 (stereo partly drawn) [Example 12, ((1S,3aR,5aS,6R,11bR,11cS)-14-(cyclopropylmethyl)-10-hydroxy-1,2,3a,4,5,6,7,11c-octahydro-3H-6,11b-(epiinoetano)-1,5a-methanonaphtho[1,2-e]indol-3-yl) ((R)-tetrahydrofuran-2-yl) methanone] | 8.7 | < 1 | 85 |  |  |  | hERG channel inhibitory effect (hERG potassium channel; concentration 1 μM): <50%; EC50 (human opioid μ receptor): > 1 nM; Emax (human opioid μ receptor; [4]): 12%; wall-less traveling path residence time rate (C57BL/6N male mice): significantly increases; concentration at 30 min ([1]; cerebrospinal fluid, read-out: Concentration in cerebrospinal fluid): 42 nM; concentration at 30 min ([1]; plasma, read-out: Concentration in plasma): 580 nM; minimum effective medicinal dose (Wistar male rats; rat elevated plus maze test, p. o.): 0.3 mg/kg; wall-less traveling path residence time rate (Wistar male rats; rat, 0.3 mg/kg oral administration, 2 hours before test (FIG. 2)): significantly increases |
| O=C1CC[C@H](C(=O)N2C[C@H]3C[C@@]45CC[C@@H]2[C@@H]3[C@@]42CCN(CC3CC3)[C@@H]5Cc3ccc(O)cc32)O1 [Example 13, (R)-5-((1S,3aR,5aS,6R,11bR,11cS)-14-(cyclopropylmethyl)-10-hydroxy-2,3,3a,4,5,6,7,11c-octahydro-1H-6,11b-(epiminoethano)-1,5a-methanonaphtho[1,2-e]indole-3-carbonyl) dihydrofuran-2(3H)-one] |  | < 3 | 70 |  |  |  | EC50 (human opioid κ receptor; CHO cells expressing human κ receptor, cAMP, N.C. = maximum reaction not reached at highest concentration (10 μM), not calculated, read-out: κ receptor EC° C.): < 1 nM; Emax (human opioid κ receptor; ratio to maximum reaction of control drug U-69593 (100%), read-out: κ receptor Emax): 13%; hERG channel inhibitory effect (hERG potassium channel; concentration 1 μM): <50%; EC50 (human opioid μ receptor): > 1 nM; Emax (human opioid μ receptor; [4]): 35% |
| O=C([C@H]1CCCO1)N1C[C@H]2CC34CCC1C2C31CCNC4Cc2ccc(O)cc21 (stereo partly drawn) [Example 14, ((1S,3aR,5aS,6R,11bR,11cS)-10-hydroxy-1,2,3a,4,5,6,7,11c-octahydro-3H-6,11b-(epiinoetano)-1,5a-methanonaphtho[1,2-e]indol-3-yl) ((R)-tetrahydrofuran-2-yl) methanone] |  |  |  | only a weak inhibitory effect | <50 |  |  |
